Measured values published in US20030105014A1, “Screening assay for the identification of inhibitors of macrophage migration inhibitory factor” (priority 1996, published 2003).
One block for each molecule: values may come before it.

Experiments:
[1] = target: T1, MIF (Homo sapiens, UniProt P14174); assay: MIF dopachrome tautomerase activity assay with Compound 1b as MIF-substrate; type: biochemical; details: test compound used in place of the MIF-substrate
T1 construct: made in house; host or cells: E. coli BL21(DE3), pET11b (inferred from Section 6; the Section 8 text says only 'recombinant')
T1 sequence (P14174 2-115 limits assumed): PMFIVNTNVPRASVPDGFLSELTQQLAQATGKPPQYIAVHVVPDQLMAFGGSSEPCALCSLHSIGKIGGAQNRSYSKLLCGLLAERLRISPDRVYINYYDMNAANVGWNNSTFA
Source text: The general method of performing an assay for MIF dopachrome tautomerase activity, described in more detail below, begins with the oxidation of a percursor of the MIF-substrate (e.g., DOPA-related Compound 1a [L-3-(3,4-dihydroxyphenyl) alanine methyl ester] above) and, if required, the similar oxidation of precursors of the test inhibitors (e.g., the DOPA-related Compounds 2a [L-3-(3,4-dihydroxyphenyl)-2-methyl alanine], 3a [D/L-3-(3,4-dihydroxyphenyl)-2-methyl alanine], 4a [L-3-(3,4-dihydroxyphenyl)-2-methyl alanine methyl ester] and 5a [D/L-3-(3,4-dihydroxyphenyl)-2 methyl alanine methyl ester] above). This oxidation of each precursor compound with sodium periodate generates the corresponding orange-colored dopachrome derivative; specifically, a preferred MIF-substrate (Compound 1B above) and the test inhibitors (Compounds 2b, 3b, 4b, and 5b above). Upon addition of MIF, the MIF-substrate (Compound 1b [L-3,5-dihydro-6-hydroxy-5-oxo-2H-indole-2-carboxylic acid methyl ester]) undergoes tautomerization resulting in a colorless product. In the presence of the test inhibitors (Compounds 2b, 3b, 4b, and 5b), decolorization of MIF-substrate (Compound 1b) was retarded. Test compounds 2b, 3b, 4b, and 5b themselves were unreactive in this tautomerization reaction; that is, they were not tautomerized and correspondingly decolorized by MIF dopachrome tautomerase activity if they were substituted for the MIF-substrate in this assay method.
In a preferred MIF dopachrome tautomerase activity assay procedure, the DOPA-related precursors (Compounds 1a, 2a, 3a, 4a, and 5a above) are prepared as 10 mM stock solutions in Assay Buffer (10 mM sodium phosphate, pH 6.0). About 10 minutes before the tautomerization assay, 1.0 ml of each stock solution was diluted with 8 ml of Assay Buffer, and 1.0 ml of sodium periodate stock solution (20 mM in water) was added to initiate the oxidation of the diluted precursors, thus generating each respective dopachrome derivative (i.e., Compounds 1b, 2b, 3b, 4b, and 5b) at a final concentration of 1 mM. To perform the actual tautomerization assay, 0.5 ml of the 1 mM solution of the MIF-substrate (i.e., Compound 1b) was mixed with 0.5 ml of Assay Buffer (no inhibitor control reaction) or 0.5 ml of the 1 mM dilution of the test inhibitor (e.g., Compounds 2b, 3b, 4b, or 5b), followed by addition of 10 μl of recombinant […] solution from a 20 μg/ml stock.

[2] = target: recombinant human MIF (Homo sapiens, UniProt P14174); assay: biochemical; details: read-out: % Inhibition of MIF tautomerase activity
[3] = test system: RAW 264.7 macrophages; assay: MIF-induced secretion of TNFα by mouse macrophages (L929 cell cytotoxicity readout); type: cell-based, murine
Procedure: TNFα production was quantitated in MIF-conditioned RAW 264.7 macrophage supernatants by L929 cell cytotoxicity as described previously (Wolpe et al., 1988, J. Exp. Med. 167: 570). RAW 264.7 macrophages were resuspended in RPMI/10% FBS, plated at 1×10^6 cells/ml, incubated for 3 hours at 37° C. in a humidified atmosphere with 5% CO2, and washed twice with RPMI/1% FBS. Cells were incubated for 12-14 hours with various doses of MIF diluted in RPMI/1% FBS. At the end of each experiment, cell culture media were collected, centrifuged (10 min at 800 g), and supplemented with 1 mM PMSF. MIF-induced TNFα activity was measured immediately afterwards.

[4] = Tautomerase activity of altered or glycated MIF proteins; type: biochemical
Procedure: A 1 mM solution of L-DOPA methyl ester was prepared in Reaction Buffer (10 mM sodium phosphate, pH 6, containing 0.5 mM EDTA). L-DOPA methyl ester was oxidized to colored L-dipachrome methyl ester by adding 10% (v/v) of a 20 mM aqueous solution of potassium periodate, following a 1:2 dilution with Reaction Buffer.
The test compound, reduced glutathione, was added in concentrations of 0.1 mM, 0.5 mM, 1.0 mM, and 2.0 mM to separate cuvettes containing the substrate solution. Approximately 100 ng of purified recombinant human MIF was added to each cuvette. […]
Purified recombinantly-produced human MIF protein was glycated by incubation in aqueous buffer in the presence of 0.5 M glucose, typically for 6 weeks in the dark at 37° C. under a nitrogen atmosphere to ensure complete glycation of susceptible residues (although other spontaneous glycation conditions will serve to glycate the protein without departing from the essence of the invention) and tested for D-dopachrome tautomerase activity by the method of Section 7 or Section 8. […] The AGE-MIF was recovered and analyzed by matrix-assisted laser desorption ionization mass spectroscopy and determined to have a mass consistent with three-fold Amadori product modification of the protein; that is, there was a mass excess of approximately 3×162 (the mass excess of a single Amadori product). […]

[5] = test system: RAW 264.7 macrophages; assay: MIF-induced nitric oxide production in macrophages (Griess reagent); type: cell-based, murine; details: 1 μg/ml, IFN-γ-primed RAW 264.7 macrophages
Procedure: Nitric oxide (NO) production was quantitated in MIF-conditioned RAW 264.7 and thioglycollate-elicited peritoneal exudate macrophage supernatants by measuring nitrite and nitrate content with the Griess reagent. RAW 264.7 macrophages were prepared and conditioned as described above. In some experiments, cells were incubated for 1 h with recombinant murine interferon-γ (IFN-γ) (100 IU/ml) (Boehringer-Mannheim, Indianapolis, Ind.) prior to the addition of MIF. Thioglycollate-elicited peritoneal exudate macrophages were obtained from BALB/c mice that were injected intra-peritoneally 3-4 days previously with 2 ml of sterile thioglycollate broth. Cells were harvested under strict aseptic conditions by lavage of the peritoneal cavity with 5 ml of an ice-chilled 11.6% sucrose solution. After centrifugation (10 min at 800 g), cells were resuspended in RPMI/10% FBS and plated at a density of 2×10^6 cells/ml. After 3 h of incubation, non-adherent cells (i.e. PMNs, lymphocytes) were removed with RPMI/1% FBS and the remaining adherent cells conditioned with MIF as described for RAW 264.7 cells. Trace concentrations of contaminating LPS were neutralized by incubating MIF (1 and 10 μg/ml in cell culture media) with polymyxin B at a concentration of 10 and 100 ng/ml, respectively, for 30 min at room temperature under sterile conditions. […]

Molecule: COC(=O)C1(C)CC2=CC(=O)C(O)=CC2=N1 [Compound 4b, L-3,5-dihydro-6-hydroxy-2-methyl-5-oxo-2H-indole-2-carboxylic acid methyl ester]
- Tautomerization by MIF when substituted for the MIF-substrate [1]: unreactive

B1: rhuMIF: recombinant human MIF expressed in E. coli from pET11b, native amino-terminus (protein, UniProt P14174 2-115, looked up)
Macrophage migration …: PMFIVNTNVPRASVPDGFLSELTQQLAQATGKPPQYIAVHVVPDQLMAFGGSSEPCALCSLHSIGKIGGAQNRSYSKLLCGLLAERLRISPDRVYINYYDMNAANVGWNNSTFA
- Secretion of TNFα induced by MIF ([3]; MIF 0.1 μg/ml): 2.9 ± 2.4 ng/mL
- Secretion of TNFα induced by MIF ([3]; MIF 1 μg/ml): 3.4 ± 2.8 ng/mL
- Secretion of TNFα induced by MIF ([3]; MIF 10 μg/ml): 3.9 ± 2.8 ng/mL
- MIF tautomerase activity of expressed protein ([4]; protein expressed in E. coli): highly active
- NO production activity relative to rmuMIF [5]: approximately 4 fold

B2: AGE-MIF: recombinant human MIF glycated by incubation with 0.5 M glucose; three-fold Amadori product modification (protein, UniProt P14174 2-115, looked up)
Macrophage migration …: PMFIVNTNVPRASVPDGFLSELTQQLAQATGKPPQYIAVHVVPDQLMAFGGSSEPCALCSLHSIGKIGGAQNRSYSKLLCGLLAERLRISPDRVYINYYDMNAANVGWNNSTFA
modifications: advanced glycation end-product modified
- D-dopachrome tautomerase activity of glycated MIF ([4]; human MIF incubated with 0.5 M glucose, typically 6 weeks at 37° C., method of Section 7 or Section 8): no D-dopachrome tautomerase activity

Next, values leading:

- Tautomerization by MIF when substituted for the MIF-substrate [1]: unreactive
Molecule: CC1(C(=O)O)CC2=CC(=O)C(O)=CC2=N1 [Compound 2b, L-3,5-dihydro-6-hydroxy-2-methyl-5-oxo-2H-indole-2-carboxylic acid]

- Tautomerization by MIF when substituted for the MIF-substrate [1]: unreactive
Molecule: CC1(C(=O)O)CC2=CC(=O)C(O)=CC2=N1 [Compound 3b, D/L-3,5-dihydro-6-hydroxy-2-methyl-5-oxo-2H-indole-2-carboxylic acid]

- Tautomerization by MIF when substituted for the MIF-substrate [1]: unreactive
Molecule: COC(=O)C1(C)CC2=CC(=O)C(O)=CC2=N1 [Compound 5b, D/L-3,5-dihydro-6-hydroxy-2-methyl-5-oxo-2H-indole-2-carboxylic acid methyl ester]

- inhibition at 100 µM [2]: 14%
- inhibition at 500 µM [2]: 69%
- inhibition at 1000 µM [2]: 95%
- inhibition at 2000 µM [2]: 100%
Molecule: N[C@@H](CCC(=O)N[C@@H](CS)C(=O)NCC(=O)O)C(=O)O [Glutathione, glutathione]
